This assay deals with T1, human Farsenoid X Receptor ligand binding domain - GST fusion protein (GST-FXR LBD) (Homo sapiens, UniProt Q96RI1).
T1 construct: Human FXR-LBD (amino acid 248-476); made in house; host or cells: E. coli BL21
T1 sequence (Q96RI1 248-476 isoform Q96RI1-1): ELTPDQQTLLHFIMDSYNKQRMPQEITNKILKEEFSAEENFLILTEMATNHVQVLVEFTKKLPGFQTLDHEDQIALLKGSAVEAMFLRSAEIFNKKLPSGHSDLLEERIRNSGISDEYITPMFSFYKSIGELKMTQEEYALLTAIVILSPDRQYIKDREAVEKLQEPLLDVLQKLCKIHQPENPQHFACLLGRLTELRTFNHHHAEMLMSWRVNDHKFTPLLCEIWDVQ
As to the kind of experiment: FXR-SRC-1 Cofactor Recruitment Assay (time-resolved fluorescence energy transfer). It is filed as biochemical. To be noted: SRC-1 peptide recruitment, 1 hour at room temperature.

pEC50: −log10 of the molar value.

This is an account of results in US8575161B2, “Benzofurane, benzothiophene, benzothiazol derivatives as FXR modulators” (Merck Patent GmbH, priority 2008, dated 2013).

Usually pEC50 stands for the EC50 on a negative log10 scale, so that one unit is a factor of ten.

Text: BIOLOGICAL EXPERIMENTS FXR-SRC-1 Cofactor Recruitment Assay
GST-LBD is labelled with a europium chelate (donor) via a europium-tagged anti-GST antibody, and the co-activator peptide is labelled with allophycocyanin-APC (acceptor) via a streptavidin-biotin linkage.
In the presence of an agonist for the nuclear receptor, the peptide is recruited to the GST-LBD, bringing europium and allophycocyanin into close proximity to enable energy transfer from the europium chelate to the allophycocyanin. Upon excitation of the complex with light at 340 nm, excitation energy absorbed by the europium chelate is transmitted to the allophycocyanin moiety resulting in emission at 665 nm. […] The activity of a nuclear receptor agonist can be measured by determining the ability of a compound to bind the nuclear receptor in this test (EC50) and compare to the ability of reference compound to bind this same nuclear receptor. […]
A mix without peptide (same than peptide mix were peptide was replaced by water) was also set-up and for each compound (each concentration tested) a basal fluorescence level was determined in order to detect self-fluorescent compounds. […]
Plates were incubated 1 hour at room temperature and fluorescence was read on a time resolved mode on a Wallac/Perkin Elmer Victor2 counter.
For each compound concentration, fluorescent signal ratio: F665/F615×1000 was calculated. […]

As for `O=C(O)c1cc2c(Br)c(N3CCC(N(C(=O)C4CC4)c4ccc(Cl)cc4Cl)CC3)ccc2o1` [Example 165, 4-Bromo-5-{4-[cyclopropanecarbonyl-(2,4-dichloro-phenyl)-amino]-piperidin-1-yl}-benzofuran-2-carboxylic acid], the pEC50 is 6.97.
